Biological target: T1, α1β2γ2 GABA receptors (α1β2γ2-CHO-TRex stable cell strain) (Homo sapiens, UniProt P14867+P47870)
T1 construct: expressed in transfected cells
Test: Whole-cell patch clamp, intrasynaptic functional activity (positive allosteric regulation of GABA-induced current)
Type: cell-based
Settings: patch clamp -60 mV, GABA at EC10-20, α1β2γ2-CHO-TRex cells
Method: (§1) The α4β3δ-HEK-FlpIn-TRex stable cell strain was cultured in DMEM+10% FBS complete culture medium, with the selective antibiotics being 10 μg/mL Blasticidin, 100 µg/mL Zeocin, 100 µg/mL Hygromycin, and 0.2 μg/mL Puromycin. The α1β2γ2-CHO-TRex stable cell strain was cultured in DMEM/F12+10% FBS complete culture medium, with the selective antibiotics being 10 μg/mL Blasticidin, 100 μg/mL Zeocin, 300 μg/mL Hygromycin, and […] Puromycin.
(§2) The day before the patch clamp experiment, cells were seeded onto 12 mm polylysine-coated coverslips and then cultured in 35 mm culture dishes, and tetracycline ([…]) was added to induce the expression of GABA receptors. The extracellular fluid had the following composition (in mM): 140 NaCl, 3 KCl, 1.5 MgCl2, 2 CaCl2, 10 HEPES, and 10 Glucose. After thorough mixing, NaOH was added to adjust the pH to 7.4, and sucrose was added to adjust the osmotic pressure to 300-320 mOsm. The fluid was stored at 4° C. The electrode internal solution had the following composition (in mM): 145 KCl, 1 MgCl2, 5 EGTA, 10 HEPES, and 5 MgATP. After thorough mixing, KOH was added to adjust the pH to 7.3, and sucrose was added to adjust the osmotic pressure to 290-300 mOsm. The solution was filtered through a […] before use.
(§3) Whole-cell patch clamp recording was mainly employed in this experiment. The membrane potential was clamped at −60 mV, and receptors were activated using GABA at an EC10-20 concentration ([…]). The test compounds were dissolved in 0.1% DMSO, and perfusion was performed for 30 s prior to GABA stimulation. Finally, the positive allosteric regulating effects of the test compounds on α1β2γ2 or α4β3δ were determined.
(§4) The experimental result for each concentration was expressed as a fold increase in the GABA-induced current caused by the compound. […] At least 5 concentrations are tested to obtain a complete EC50 curve and EC50 values. All experiments were repeated on no less than 3 cells, and data processing was completed using GraphPad prism software. The dose-response curves were fitted using the Hill equation, and the half-maximal activating concentration EC50 and Emax were finally obtained.

T1 sequence (P14867 28-456): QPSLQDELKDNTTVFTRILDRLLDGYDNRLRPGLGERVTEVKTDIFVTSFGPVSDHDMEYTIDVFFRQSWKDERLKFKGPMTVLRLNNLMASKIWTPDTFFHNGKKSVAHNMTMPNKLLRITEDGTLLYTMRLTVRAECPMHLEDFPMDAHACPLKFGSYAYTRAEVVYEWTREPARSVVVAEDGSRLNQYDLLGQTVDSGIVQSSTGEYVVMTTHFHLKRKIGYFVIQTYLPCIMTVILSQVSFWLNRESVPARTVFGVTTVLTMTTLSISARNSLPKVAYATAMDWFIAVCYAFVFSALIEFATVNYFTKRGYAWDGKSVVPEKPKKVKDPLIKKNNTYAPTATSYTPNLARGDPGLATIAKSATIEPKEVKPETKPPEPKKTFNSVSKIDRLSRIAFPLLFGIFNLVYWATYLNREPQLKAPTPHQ
T1 sequence (P47870 25-512 limits assumed): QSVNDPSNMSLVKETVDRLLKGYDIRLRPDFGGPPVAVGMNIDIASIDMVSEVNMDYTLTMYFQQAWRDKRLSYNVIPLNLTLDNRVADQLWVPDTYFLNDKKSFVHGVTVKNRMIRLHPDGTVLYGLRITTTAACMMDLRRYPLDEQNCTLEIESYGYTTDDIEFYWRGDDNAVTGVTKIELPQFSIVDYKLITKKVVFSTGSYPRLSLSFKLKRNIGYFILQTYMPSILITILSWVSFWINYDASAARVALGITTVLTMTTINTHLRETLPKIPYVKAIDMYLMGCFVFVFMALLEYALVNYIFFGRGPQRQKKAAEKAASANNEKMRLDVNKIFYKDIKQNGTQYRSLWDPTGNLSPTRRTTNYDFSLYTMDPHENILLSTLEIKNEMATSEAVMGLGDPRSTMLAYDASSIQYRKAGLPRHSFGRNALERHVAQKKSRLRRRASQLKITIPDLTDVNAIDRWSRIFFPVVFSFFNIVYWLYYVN
T1 sequence (P18507 40-475 partner): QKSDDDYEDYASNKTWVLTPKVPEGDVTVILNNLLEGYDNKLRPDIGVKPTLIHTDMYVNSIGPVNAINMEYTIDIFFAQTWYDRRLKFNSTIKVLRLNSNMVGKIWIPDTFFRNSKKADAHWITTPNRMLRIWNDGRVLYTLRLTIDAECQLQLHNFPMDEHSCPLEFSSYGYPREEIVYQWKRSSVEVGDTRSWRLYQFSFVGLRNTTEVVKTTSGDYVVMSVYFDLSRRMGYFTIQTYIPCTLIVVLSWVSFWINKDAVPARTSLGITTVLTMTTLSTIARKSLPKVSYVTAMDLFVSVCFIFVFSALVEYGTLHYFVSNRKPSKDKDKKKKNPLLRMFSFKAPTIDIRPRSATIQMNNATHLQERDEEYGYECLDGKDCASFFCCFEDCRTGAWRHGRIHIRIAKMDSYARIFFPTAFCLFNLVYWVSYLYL

Row | Structure (SMILES) | EC50 | Emax
1 | C[C@@]1(O)CC[C@H]2[C@H](CC[C@@H]3[C@@H]2CC[C@]2(C)[C@@H](C(=O)Cn4ccn(-c5cccc(F)c5)c4=O)CC[C@@H]32)C1 [Compound 11] | 241 nM | 594%
2 | COc1ccc(-n2ncn(CC(=O)[C@H]3CC[C@H]4[C@@H]5CC[C@@H]6C[C@](C)(O)CC[C@@H]6[C@H]5CC[C@]34C)c2=O)cn1 [Compound 17] | – | 389%
3 | C[C@@]1(O)CC[C@H]2[C@H](CC[C@@H]3[C@@H]2CC[C@]2(C)[C@@H](C(=O)Cn4cnn(-c5ccccc5F)c4=O)CC[C@@H]32)C1 [Compound 18] | 171 nM | 710%
4 | C[C@@]1(O)CC[C@H]2[C@H](CC[C@@H]3[C@@H]2CC[C@]2(C)[C@@H](C(=O)Cn4cnn(-c5cccc(C(N)=O)c5)c4=O)CC[C@@H]32)C1 [Compound 19] | – | 764%

Biological target: T2, α4β3δ GABA receptors (α4β3δ-HEK-FlpIn-TRex stable cell strain) (Homo sapiens, UniProt P28472+P48169)
T2 construct: expressed in transfected cells
T2 sequence (P48169 36-554): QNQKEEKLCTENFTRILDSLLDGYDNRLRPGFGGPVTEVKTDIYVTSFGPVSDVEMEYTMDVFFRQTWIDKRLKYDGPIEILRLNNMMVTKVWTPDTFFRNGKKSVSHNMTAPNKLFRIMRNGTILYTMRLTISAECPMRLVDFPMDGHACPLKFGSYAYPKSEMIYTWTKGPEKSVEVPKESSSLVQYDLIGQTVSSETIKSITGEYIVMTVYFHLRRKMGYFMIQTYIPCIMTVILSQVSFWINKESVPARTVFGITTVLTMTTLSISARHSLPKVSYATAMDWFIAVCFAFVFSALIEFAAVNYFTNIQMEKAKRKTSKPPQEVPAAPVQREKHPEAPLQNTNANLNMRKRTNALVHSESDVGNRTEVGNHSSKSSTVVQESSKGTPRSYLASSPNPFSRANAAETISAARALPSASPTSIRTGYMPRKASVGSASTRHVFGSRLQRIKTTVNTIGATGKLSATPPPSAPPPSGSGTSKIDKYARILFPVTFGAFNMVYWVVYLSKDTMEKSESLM
T2 sequence (P28472 26-473): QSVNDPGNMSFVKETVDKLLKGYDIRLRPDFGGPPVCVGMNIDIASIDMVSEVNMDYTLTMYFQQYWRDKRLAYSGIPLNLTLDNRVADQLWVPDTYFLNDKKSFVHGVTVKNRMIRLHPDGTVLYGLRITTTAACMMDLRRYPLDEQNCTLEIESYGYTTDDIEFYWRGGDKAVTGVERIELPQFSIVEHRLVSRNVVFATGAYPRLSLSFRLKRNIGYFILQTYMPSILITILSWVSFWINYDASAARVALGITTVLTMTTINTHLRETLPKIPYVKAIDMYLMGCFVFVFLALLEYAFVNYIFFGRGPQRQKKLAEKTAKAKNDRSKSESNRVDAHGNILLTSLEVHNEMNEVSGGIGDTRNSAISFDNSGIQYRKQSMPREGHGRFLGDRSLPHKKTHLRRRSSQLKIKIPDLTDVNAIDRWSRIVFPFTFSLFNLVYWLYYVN
T2 sequence (O14764 25-452 partner): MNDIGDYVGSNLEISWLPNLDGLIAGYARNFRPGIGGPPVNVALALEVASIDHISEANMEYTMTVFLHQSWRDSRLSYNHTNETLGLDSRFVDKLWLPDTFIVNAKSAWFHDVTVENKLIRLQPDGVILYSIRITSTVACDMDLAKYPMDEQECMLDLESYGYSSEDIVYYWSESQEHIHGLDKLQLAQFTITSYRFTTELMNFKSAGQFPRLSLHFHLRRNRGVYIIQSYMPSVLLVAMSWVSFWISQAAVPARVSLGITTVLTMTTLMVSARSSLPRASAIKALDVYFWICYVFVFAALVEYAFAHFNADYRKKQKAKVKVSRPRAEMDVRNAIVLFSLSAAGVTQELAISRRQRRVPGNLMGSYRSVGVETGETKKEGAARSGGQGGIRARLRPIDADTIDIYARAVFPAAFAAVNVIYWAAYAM
Test: Whole-cell patch clamp, extrasynaptic functional activity (positive allosteric regulation of GABA-induced current)
Type: cell-based
Settings: patch clamp -60 mV, GABA at EC10-20, α4β3δ-HEK-FlpIn-TRex cells
Method: as §1, §2, §3, §4

Row | Structure (SMILES) | EC50 | Emax
5 | C[C@@]1(O)CC[C@H]2[C@H](CC[C@@H]3[C@@H]2CC[C@]2(C)[C@@H](C(=O)Cn4ccn(-c5cccc(F)c5)c4=O)CC[C@@H]32)C1 [Compound 11] | 139 nM | 552%
6 | COc1ccc(-n2ncn(CC(=O)[C@H]3CC[C@H]4[C@@H]5CC[C@@H]6C[C@](C)(O)CC[C@@H]6[C@H]5CC[C@]34C)c2=O)cn1 [Compound 17] | – | 474%
7 | C[C@@]1(O)CC[C@H]2[C@H](CC[C@@H]3[C@@H]2CC[C@]2(C)[C@@H](C(=O)Cn4cnn(-c5ccccc5F)c4=O)CC[C@@H]32)C1 [Compound 18] | 107 nM | 541%
8 | C[C@@]1(O)CC[C@H]2[C@H](CC[C@@H]3[C@@H]2CC[C@]2(C)[C@@H](C(=O)Cn4cnn(-c5cccc(C(N)=O)c5)c4=O)CC[C@@H]32)C1 [Compound 19] | – | 386%

System: not listed separately
Test: In vitro liver microsomal stability assay, human
Type: in vitro ADME
Settings: Human liver microsomes
Method: (§5) 1) Preparation of working solutions of test samples: The test samples were diluted with acetonitrile to 100 M.
(§6) 2) Preparation of a working solution of liver microsomes: liver microsomes were diluted with 100 mM phosphate-buffered saline to 0.56 mg/mL.
(§7) 3) Preparation of a working solution of reduced nicotinamide adenine dinucleotide (NADPH): A proper amount of NADPH was weighed out and diluted with phosphate-buffered saline to 20 mM, and an equal volume of a 60 mM MgCl2 solution was added.
(§8) 4) Preparation of a stop solution: Tolbutamide was diluted with acetonitrile to 20 ng/mL, serving as a stop solution containing an internal standard.
(§9) 1) Incubation anti-adsorption EP tubes were prepared and labeled with species, test/control sample, time points (0, 5, 10, 20, 30, 60 min, Blank60, and NCF60), etc.
(§10) 2) 2 L of test or control sample working solution, diluted with acetonitrile to 100 M, and 178 L of liver microsome working solution were added to each tube. For the Blank60 tube, 2 L of acetonitrile was added instead of a test sample. The tubes were pre-incubated in a 37° C. water bath for about 10 min, with each sample tested in triplicate.
(§11) 3) After the pre-incubation was complete, 20 L of NADPH working solution was added to each tube except for the 0 min and NCF60 tubes to start reactions, and 20 L of phosphate-buffered saline (containing 30 mM MgCl2) was added to the NCF60 tube. In the incubation system, the final concentrations of the test and control samples were 1 M, the final concentration of liver microsomes was 0.5 mg/mL, the final concentration of NADPH was 1 mM, and the final concentration of MgCl2 was 3 mM.
(§12) 4) For the 0 min sample, 600 L of stop solution was added before adding the NADPH working solution. After each sample was incubated for its respective time, 600 L of stop solution was added to stop the reaction.
(§13) 5) After the reaction was stopped, each sample was vortexed for 30 s and then centrifuged at 13,500 rpm for 10 min. 100 L of the supernatant was transferred to an EP tube, and 100 L Milli-Q water was added. The mixture was well mixed by vortexing and analyzed by LC-MS/MS.
(§14) 6) Testosterone and dextromethorphan were used as positive control samples under the same conditions to assess the stability and reliability of the system.
(§15) Parameters of the test samples, including their half-lives, intrinsic clearance rates in liver microsomes, and hepatic intrinsic clearance rates, were calculated based on the percentage of test sample remaining.

Row | Structure (SMILES) | CLint scaled at 1 µM | half-life at 1 µM | T1/2
9 | C[C@@]1(O)CC[C@H]2[C@H](CC[C@@H]3[C@@H]2CC[C@]2(C)[C@@H](C(=O)Cn4ccn(-c5cccc(F)c5)c4=O)CC[C@@H]32)C1 [Compound 11] | 63 mL/min/kg | 19.8 min | –
10 | COc1ccc(-n2ncn(CC(=O)[C@H]3CC[C@H]4[C@@H]5CC[C@@H]6C[C@](C)(O)CC[C@@H]6[C@H]5CC[C@]34C)c2=O)cn1 [Compound 17] | 17 mL/min/kg | – | 72.9 min
11 | C[C@@]1(O)CC[C@H]2[C@H](CC[C@@H]3[C@@H]2CC[C@]2(C)[C@@H](C(=O)Cn4cnn(-c5ccccc5F)c4=O)CC[C@@H]32)C1 [Compound 18] | 30 mL/min/kg | 41.7 min | –
12 | C[C@@]1(O)CC[C@H]2[C@H](CC[C@@H]3[C@@H]2CC[C@]2(C)[C@@H](C(=O)Cn4cnn(-c5cccc(C(N)=O)c5)c4=O)CC[C@@H]32)C1 [Compound 19] | 26 mL/min/kg | – | 28.5 min

Same assay, conditions: Human liver microsomes 0.5 mg/mL, NADPH

Row | Structure (SMILES) | Remaining amount % at 60 min
13 | C[C@@]1(O)CC[C@H]2[C@H](CC[C@@H]3[C@@H]2CC[C@]2(C)[C@@H](C(=O)Cn4ccn(-c5cccc(F)c5)c4=O)CC[C@@H]32)C1 [Compound 11] | 28.02%
14 | COc1ccc(-n2ncn(CC(=O)[C@H]3CC[C@H]4[C@@H]5CC[C@@H]6C[C@](C)(O)CC[C@@H]6[C@H]5CC[C@]34C)c2=O)cn1 [Compound 17] | 57.7%
15 | C[C@@]1(O)CC[C@H]2[C@H](CC[C@@H]3[C@@H]2CC[C@]2(C)[C@@H](C(=O)Cn4cnn(-c5ccccc5F)c4=O)CC[C@@H]32)C1 [Compound 18] | 38.3%
16 | C[C@@]1(O)CC[C@H]2[C@H](CC[C@@H]3[C@@H]2CC[C@]2(C)[C@@H](C(=O)Cn4cnn(-c5cccc(C(N)=O)c5)c4=O)CC[C@@H]32)C1 [Compound 19] | 42.2%

Same assay, conditions: Human liver microsomes; read-out: CLint(mic)

Row | Structure (SMILES) | microsomal CLint at 1 µM
17 | C[C@@]1(O)CC[C@H]2[C@H](CC[C@@H]3[C@@H]2CC[C@]2(C)[C@@H](C(=O)Cn4ccn(-c5cccc(F)c5)c4=O)CC[C@@H]32)C1 [Compound 11] | 70 µL/min/mg
18 | COc1ccc(-n2ncn(CC(=O)[C@H]3CC[C@H]4[C@@H]5CC[C@@H]6C[C@](C)(O)CC[C@@H]6[C@H]5CC[C@]34C)c2=O)cn1 [Compound 17] | 19 µL/min/mg
19 | C[C@@]1(O)CC[C@H]2[C@H](CC[C@@H]3[C@@H]2CC[C@]2(C)[C@@H](C(=O)Cn4cnn(-c5ccccc5F)c4=O)CC[C@@H]32)C1 [Compound 18] | 33 µL/min/mg
20 | C[C@@]1(O)CC[C@H]2[C@H](CC[C@@H]3[C@@H]2CC[C@]2(C)[C@@H](C(=O)Cn4cnn(-c5cccc(C(N)=O)c5)c4=O)CC[C@@H]32)C1 [Compound 19] | 29 µL/min/mg

System: not listed separately
Test: In vitro liver microsomal stability assay, rat
Type: in vitro ADME
Settings: Rat liver microsomes
Method: as §5, §6, §7, §8, §9, §10, §11, §12, §13, §14, §15

Row | Structure (SMILES) | CLint scaled at 1 µM | half-life at 1 µM | T1/2
21 | C[C@@]1(O)CC[C@H]2[C@H](CC[C@@H]3[C@@H]2CC[C@]2(C)[C@@H](C(=O)Cn4ccn(-c5cccc(F)c5)c4=O)CC[C@@H]32)C1 [Compound 11] | 276 mL/min/kg | 9 min | –
22 | COc1ccc(-n2ncn(CC(=O)[C@H]3CC[C@H]4[C@@H]5CC[C@@H]6C[C@](C)(O)CC[C@@H]6[C@H]5CC[C@]34C)c2=O)cn1 [Compound 17] | 161 mL/min/kg | – | 15.5 min
23 | C[C@@]1(O)CC[C@H]2[C@H](CC[C@@H]3[C@@H]2CC[C@]2(C)[C@@H](C(=O)Cn4cnn(-c5ccccc5F)c4=O)CC[C@@H]32)C1 [Compound 18] | 278 mL/min/kg | 9 min | –
24 | C[C@@]1(O)CC[C@H]2[C@H](CC[C@@H]3[C@@H]2CC[C@]2(C)[C@@H](C(=O)Cn4cnn(-c5cccc(C(N)=O)c5)c4=O)CC[C@@H]32)C1 [Compound 19] | 141 mL/min/kg | – | 17.6 min

Same assay, conditions: Rat liver microsomes 0.5 mg/mL, NADPH

Row | Structure (SMILES) | Remaining amount % at 60 min
25 | C[C@@]1(O)CC[C@H]2[C@H](CC[C@@H]3[C@@H]2CC[C@]2(C)[C@@H](C(=O)Cn4ccn(-c5cccc(F)c5)c4=O)CC[C@@H]32)C1 [Compound 11] | 9.24%
26 | COc1ccc(-n2ncn(CC(=O)[C@H]3CC[C@H]4[C@@H]5CC[C@@H]6C[C@](C)(O)CC[C@@H]6[C@H]5CC[C@]34C)c2=O)cn1 [Compound 17] | 6.6%
27 | C[C@@]1(O)CC[C@H]2[C@H](CC[C@@H]3[C@@H]2CC[C@]2(C)[C@@H](C(=O)Cn4cnn(-c5ccccc5F)c4=O)CC[C@@H]32)C1 [Compound 18] | 9.7%
28 | C[C@@]1(O)CC[C@H]2[C@H](CC[C@@H]3[C@@H]2CC[C@]2(C)[C@@H](C(=O)Cn4cnn(-c5cccc(C(N)=O)c5)c4=O)CC[C@@H]32)C1 [Compound 19] | 9.5%

Same assay, conditions: Rat liver microsomes; read-out: CLint(mic)

Row | Structure (SMILES) | microsomal CLint at 1 µM
29 | C[C@@]1(O)CC[C@H]2[C@H](CC[C@@H]3[C@@H]2CC[C@]2(C)[C@@H](C(=O)Cn4ccn(-c5cccc(F)c5)c4=O)CC[C@@H]32)C1 [Compound 11] | 153 µL/min/mg
30 | COc1ccc(-n2ncn(CC(=O)[C@H]3CC[C@H]4[C@@H]5CC[C@@H]6C[C@](C)(O)CC[C@@H]6[C@H]5CC[C@]34C)c2=O)cn1 [Compound 17] | 90 µL/min/mg
31 | C[C@@]1(O)CC[C@H]2[C@H](CC[C@@H]3[C@@H]2CC[C@]2(C)[C@@H](C(=O)Cn4cnn(-c5ccccc5F)c4=O)CC[C@@H]32)C1 [Compound 18] | 154 µL/min/mg
32 | C[C@@]1(O)CC[C@H]2[C@H](CC[C@@H]3[C@@H]2CC[C@]2(C)[C@@H](C(=O)Cn4cnn(-c5cccc(C(N)=O)c5)c4=O)CC[C@@H]32)C1 [Compound 19] | 79 µL/min/mg
